Reference: the supplement of paper PMC10307832

Experiments:
Test in all cases: relative viability (nuclei count vs DMSO), 5 days (fraction); higher = more cells survive
RAF265 + Foretinib = compound: Cn1c(Nc2ccc(C(F)(F)F)cc2)nc2cc(Oc3ccnc(-c4ncc(C(F)(F)F)[nH]4)c3)ccc21 [RAF265] + COc1cc2c(Oc3ccc(NC(=O)C4(C(=O)Nc5ccc(F)cc5)CC4)cc3F)ccnc2cc1OCCCN1CCOCC1 [Foretinib] (partner 0.25 µM)
Method in brief: (§1)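 Relative viability is defined as nuclei in treated wells over nuclei in vehicle wells. Duplicate plates were run and medians reported. Lung cancer cell lines in 1536-well plates were dosed by pin tool one day after seeding, with one drug or with a fixed anchor-drug dose plus five library-drug doses (not always all listed) in √10 steps, and nuclei were counted after 5 days.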

IPA-3 + OSI-027 = compound: C1=CC=C2C(=C1)C=CC(=C2SSC3=C(C=CC4=CC=CC=C43)O)O [IPA-3] + COc1cccc2cc(-c3nc([C@H]4CC[C@H](C(=O)O)CC4)n4ncnc(N)c34)[nH]c12 [OSI-027] (partner 0.5 µM)
Method in brief: as §1

IPA-3 + Decitabine = compound: C1=CC=C2C(=C1)C=CC(=C2SSC3=C(C=CC4=CC=CC=C43)O)O [IPA-3] + Nc1ncn([C@H]2C[C@H](O)[C@@H](CO)O2)c(=O)n1 [Decitabine] (partner 2 µM)
Method in brief: as §1

Doramapimod + Decitabine = compound: Cc1ccc(-n2nc(C(C)(C)C)cc2NC(=O)Nc2ccc(OCCN3CCOCC3)c3ccccc23)cc1 [Doramapimod] + Nc1ncn([C@H]2C[C@H](O)[C@@H](CO)O2)c(=O)n1 [Decitabine] (partner 2 µM)
Method in brief: as §1

Cell Line | relative viability (RAF265 + Foretinib; first compound 0.01 µM) | relative viability (RAF265 + Foretinib; first compound 0.03162 µM) | relative viability (RAF265 + Foretinib; first compound 0.1 µM) | relative viability (RAF265 + Foretinib; first compound 0.3162 µM) | relative viability (RAF265 + Foretinib; first compound 1 µM) | relative viability (IPA-3 + OSI-027; first compound 0.2 µM) | relative viability (IPA-3 + OSI-027; first compound 0.6325 µM) | relative viability (IPA-3 + OSI-027; first compound 2 µM) | relative viability (IPA-3 + OSI-027; first compound 6.325 µM) | relative viability (IPA-3 + OSI-027; first compound 20 µM) | relative viability (IPA-3 + Decitabine; first compound 0.2 µM) | relative viability (IPA-3 + Decitabine; first compound 0.6325 µM) | relative viability (IPA-3 + Decitabine; first compound 2 µM) | relative viability (IPA-3 + Decitabine; first compound 6.325 µM) | relative viability (IPA-3 + Decitabine; first compound 20 µM) | relative viability (Doramapimod + Decitabine; first compound 0.02 µM) | relative viability (Doramapimod + Decitabine; first compound 0.06325 µM) | relative viability (Doramapimod + Decitabine; first compound 0.2 µM) | relative viability (Doramapimod + Decitabine; first compound 0.6325 µM) | relative viability (Doramapimod + Decitabine; first compound 2 µM)
NCI-H2009 | 1.29 | 1.25 | 1.14 | 1.1 | 0.658 | 0.918 | 0.6 | 0.649 | 0.59 | 0.359 | 0.38 | 0.353 | 0.444 | 0.395 | 0.312 | 0.35 | 0.408 | 0.45 | 0.384 | 0.329
NCI-H2023 | 0.86 | 0.875 | 0.893 |  | 0.553 | 0.507 | 0.352 | 0.415 | 0.54 | 0.421 | 0.233 | 0.225 | 0.209 | 0.216 | 0.2 | 0.233 | 0.211 | 0.263 | 0.218 | 0.216
NCI-H2085 | 0.859 | 0.929 | 0.957 | 0.987 | 1.06 | 0.982 | 0.665 | 0.742 | 0.9 | 0.817 | 0.58 | 0.568 | 0.56 | 0.502 | 0.459 | 0.612 | 0.526 | 0.563 | 0.584 | 0.56
NCI-H2087 | 0.967 | 1.1 | 0.938 | 0.797 | 0.663 | 0.616 | 0.543 | 0.586 | 0.602 | 0.642 | 0.344 | 0.321 | 0.267 | 0.261 | 0.255 | 0.286 | 0.206 | 0.277 | 0.232 | 0.201
NCI-H2126 | 1.16 | 1.2 | 1.17 | 1.11 | 0.668 | 0.727 | 0.748 | 0.666 | 0.688 | 0.75 | 0.556 | 0.624 | 0.595 | 0.587 | 0.622 | 0.561 | 0.57 | 0.543 | 0.614 | 0.55
NCI-H2170 | 1.05 | 0.971 | 0.978 | 0.805 | 0.88 | 0.733 | 0.691 | 0.721 | 0.672 | 0.677 | 0.462 | 0.421 | 0.424 | 0.445 | 0.439 | 0.472 | 0.459 | 0.483 | 0.518 | 0.469
NCI-H2342 | 1.11 | 1.06 | 1.12 | 0.992 | 0.968 | 0.663 | 0.619 | 0.68 | 0.757 | 0.743 | 0.772 | 0.75 | 0.737 | 0.798 | 0.839 | 0.653 | 0.807 | 0.686 | 0.673 | 0.74
NCI-H2347 | 0.93 | 0.971 | 0.81 | 0.592 | 0.803 | 0.379 | 0.379 | 0.388 | 0.351 | 0.398 | 0.629 | 0.611 | 0.657 | 0.622 | 0.603 | 0.671 | 0.604 | 0.626 | 0.656 | 0.634
